Reference: patent publication US6979747B2, “Antioxidants, preparation processes and their uses” (Centre National de la Recherche Scientifique (CNRS), priority 1999, dated 2005)

Assays:
HIV-1 LAI [1] = assay: Antiviral activity in quiescent or PHA-P activated PBMCs infected with HIV-1 LAI; assay type: cell-based; details: quiescent and activated PBMCs, at known cytotoxic doses (so in the source)
Protocol: (§1) For some experiments, the PBMCs and the PBLs are activated for 48 h with 1 μg/ml of a mitogen, PHA-P (Difco Laboratories). The PBMCs and the PBLs are cultured in medium A (quiescent) or B (activated). The cells are cultured at 37° C. in an atmosphere saturated with moisture under 5% of CO2. The culture supernatants are removed and the culture media are replaced every three or four days. At each renewal of the culture media, the cell viability is evaluated by coloring with trypan blue or by microscopic observation.
(§2) The MDMs were infected with the reference isolate with macrophage tropism, HIV-1/Ba-L. The PBMCs and the PBLs were infected with the reference isolate with lymphocyte tropism HIV-1 LAI. The viral stock were formed by amplifying these strains in vitro using umbilical blood mononucleated cells (UBM(s) preactivated with 1 μg/ml of PHA-P and cultured in medium A supplemented by 20 IU/ml of IL-2. In order to remove the soluble factors, such as cytokines, the culture supernatants were ultracentrifuged at 360 000 g for 5 min, and the pellets were resuspended in RPMI 1640. The viral stocks thus formed were subsequently titred using PBMCs activated with PHA-P. The TCID50s (50% Tissue Culture Infectious Dose) were calculated using the Kärber formula.
(§3) A million MDMs were infected with 10 000 TCID50s of the HIV-1/Ba-L strain. This amount of virus corresponds to a multiplicity of infection (m.o.i.) equal to 0.01. The excess of virus is removed 24 h after by washing with cells using RPMI 1640. The PBLs and the PBMCs were infected with 10 000 TCID50s of the HIV-1 LAI strain (moi=0.01). The cells were washed at the end of the second day of infection.
(§4) The viral replication is measured by assaying the RT activity in the culture supernatants according to the technique described by F. Rey et al. (Biochem. Biophys. Res. Comm., 1984, 121, 126-133). The radioactivity incorporated during the extension of the complementary strand of a poly-rA synthetic matrix in the presence of an oligo-dT12-18 primer and of a radiolabeled substrate, [^3H-methyl]thymidine-5′-triphosphate ([^3H]TPP), makes it possible to assay the enzymatic activity of RT. 400 μl of supernatant are ultracentrifuged at 360 000 g for 5 min. The RT is released by lysis of the viral pellet in 20 μl of NTE-Triton (100 mM NaCl, 10 mM Tris, 1 mM EDTA, 0.1% Triton X-100). These 20 μl are subsequently incubated with 40 μl of the following reaction mixture: 62.5 mM Tris, pH 7.8; 25 mM KCl; 6.25 mM MgCl2; 1.25 mM dithiothreitol (DTT); 2.5×10^−3 ODU oligo-dT12-18 and poly-rA, 5.55×10^−3 TBq {^3H]TTP. After one hour at 37° C., the enzymatic reaction is halted and the newly synthesized strands are precipitated for 20 min at 4° C. by the addition of 1 ml of sodium pyrophosphate (NaPP), of 50 μl of yeast DNA (0.1 mg/ml in 5% trichluoroacetic acid (TCA)), and of 4 ml of 20% TCA. The mixture is filtered using a cellulose acetate membrane (Millipore) which retains the radiolabeled poly-dT chains. The filter is washed using 20 ml of 5% TCA and the residual water is removed by addition of 25 μl of 70% ethanol. The filter is dried in an oven for 10 minutes at 80° C. and is then introduced into vials containing 8 ml of liquid scintillant. The β radioactivity is quantified by means of a scintillation counter (Packard Bell). The results are expressed in pM of [^3H]-TMP incorporated/h/ml of supernatant or, more simply, in cpm/h/ml.
The PBMCs, quiescent or activated by PHA-P, were infected by the reference strain with lymphocyte tropism HIV-1 LAI. All the culturings were carried out in parallel and the drugs were maintained throughout the culturing.

HIV-1/Ba-L = assay: Antiviral activity in MDM cultures infected with HIV-1/Ba-L (RT activity in culture supernatants); assay type: cell-based; details: for EC50: Human immunodeficiency virus 1, BAL, MDMs infected with 10 000 TCID50s HIV-1/Ba-L (m.o.i. 0.01), read-out: inhibiting concentration (50% effective dose); for antiviral activity (in words): second series, compounds dissolved in DMSO then diluted, MDMs, HIV-1/Ba-L
Protocol: A million monocytes in 1 ml of culture medium A are distributed in each well of a 48 well plate (Becton-Dickinson). The monocytes are left to differentiate into macrophages for 7 days. The macrophages thus differentiated are maintained in culture in medium A.
as §2, §3, §4
The 50% effective doses (ED50) are calculated from the cumulative RT activities using the software “Dose-effects analysis with microcomputers” developed by J. Chou & T. C. Chou.

MDMs = assay: Cytotoxicity with respect to MDMs (neutral red); assay type: cell-based, human
Protocol: These tests are carried out systematically in parallel with the evaluation of the antiviral activity. In view of the oxidation/reduction capacity of the molecules tested, the test with the tetrazolium salt, which measures the activity of mitochondrial dehydrogenases, cannot be used.
Neutral red (NR) is a vital dye which makes it possible to measure the viability of adherent cells, such as MDMs. 600 μl of culture supernatant are removed and replaced with 400 μl of an NR solution (0.001% m/v in phosphate buffer, PBS, Boehringer Mannheim), filtered at 0.45 μm. The cells were incubated for 1 h at 37° C. and are subsequently washed (2×1 ml of PBS). The cells are then lysed at −20° C. with 200 μl of a 50% ethanol mixture comprising 1% of glacial acetic acid. The OD is measured twice with 100 μl of solution using a spectrophotometer.

[2] = tested on: total glutathione (GSH+GSSG); assay: Total intracellular glutathione in quiescent PBMCs; assay type: cell-based, human; details: quiescent PBMCs; for effect on intracellular level of glutathione (in words): 24 h treatment
GSH = assay: Intracellular GSH in MDMs infected with HIV-1/Ba-L; assay type: cell-based, human; details: conditions of stress
Protocol: The intracellular GSH was assayed by means of the assay kit sold by Cayman. This method for assaying glutathione is an adaptation of that described by O. W. Griffith et al. (1980).
The compound I-152 and its derivatives are prepared extemporaneously by being dissolved in dimethyl sulfoxide (DMSO) at the concentration of 100 mM. They are subsequently stored at −20° C. after having been diluted 10 fold in phosphate buffer (PBS).

[3] = biological target: T1, RT of the HIV-1 LAI isolate (Human immunodeficiency virus type 1 group M subtype B, UniProt P03367); assay: Acellular test of the enzymatic activity of RT; assay type: biochemical; details: for decrease of RT activity: 500 μM
T1 construct: The RT is released by lysis of the viral pellet in 20 μl of NTE-Triton; endogenous in cells; host or cells: Virions pelleted by ultracentrifugation from supernatants of infected cell cultures
Protocol: as §4
The I-152 molecule is composed of NAC and MEA, which are capable of inhibiting the activity of RT (A. Bergamini et al., J. Clin. Invest., 1994, 93, 2251-2257). For this reason, the inhibiting capacity of I-152 with respect to the RT activity was measured using an acellular test. This test was carried out according to the protocol described above (§ 3.3.3.1.). In the reaction mixture, only the 20 μl of water are replaced by 20 μl of a concentration of I-152 or of the reference compounds. Heparin, known for inhibiting the activity of RT and of the other DNA polymerases, is used as positive control for inhibition.

HIV-1 LAI [4] = assay: Antiviral activity in quiescent or PHA-P activated PBLs infected with HIV-1 LAI; assay type: cell-based; details: quiescent PBLs or PBLs activated by PHA-P
Protocol: as §1, §2
A million MDMs were infected with 10 000 TCID50s of the HIV-1/Ba-L strain. This amount of virus corresponds to a multiplicity of infection (m.o.i.) equal to 0.01. The excess of virus is removed 24 h after by washing with cells using RPMI 1640. […]
The viral replication is measured by assaying the RT activity in the culture supernatants according to the technique described by F. Rey et al. (Biochem. Biophys. Res. Comm., 1984, 121, 126-133). The radioactivity incorporated during the extension of the complementary strand of a poly-rA synthetic matrix in the presence of an oligo-dT12-18 primer and of a radiolabeled substrate, [^3H-methyl]thymidine-5′-triphosphate ([^3H]TPP), makes it possible to assay the enzymatic activity of RT. […] The β radioactivity is quantified by means of a scintillation counter (Packard Bell). […]

HIV provirus = assay: Quantification of proviral DNAs by PCR (integration of the provirus within the cell genome); assay type: cell-based; details: 10 μM
Protocol: I-152 is composed of MEA and NAC, which are capable of interacting with the early phases of the biological cycle of HIV. It is therefore capable of decreasing the integration of the provirus into the cell genome. In order to measure these effects, the proviral DNAs were quantified by PCR. The cells were lysed using 1 ml of the following lysis solution: 10 mM Tris HCl pH 8; 100 mM of EDTA pH 8; 0.5% of sodium dodecyl sulfate (SDS); 20 μg/ml of DNAse-free bovine pancreatic RNAse. 200 μg/ml of proteinase K are subsequently added to this suspension. The DNAs were subsequently extracted using 1 ml of an ice-cold saturated phenol solution and 1 ml of a […] solution.
The viral DNAs were then amplified by means of specific primers of the gag gene (SK01/SK39) and of a standard range of the 8E5 line, a chronically infected line, the cells of which carry a proviral copy. The β-globin gene was used as reporter gene in order to make sure of the quality of the DNA extraction.

PBLs = details: PBL cultures
PBMCs = details: PBMC cultures

Compound: CC(=O)N[C@@H](CS)C(=O)O [NAC, N-Acetyl-L-cysteine]
- inhibition of viral replication (in words) (HIV-1 LAI [1]): do not inhibit viral replication
- EC50 (HIV-1/Ba-L): 9.4 mM
- cytotoxicity (MDMs; MDMs, 15 mM): 70%
- cytotoxicity (MDMs; MDMs, 40 mM): 91%
- cytotoxicity at antiviral doses (in words) (MDMs; MDMs): cytotoxic
- effect on intracellular level of glutathione (in words) [2]: better at increasing the intracellular level of glutathione
- intracellular concentration of total glutathione ([2]; dose 15 mM): ~2.64 ± 0.13 µM
- regeneration of GSH under conditions of stress (in words) (GSH): ineffective
- inhibiting activity with respect to RT (in words) ([3]; acellular system): do not exhibit an inhibiting activity
- antiviral activity (in words) (HIV-1 LAI [4]): do not have or have a very slight antiviral activity

Compound: CC(=O)N[C@@H](CSC(=O)C(C)(C)C)C(=O)NCCSC(C)=O [I-178, N-(N-acetyl-S-pivaloyl-L-cysteinyl)-S-acetylcysteamine]
- antiviral activity (in words) (HIV-1/Ba-L): activities similar to that of I-152

Compound: heparin
- inhibition of RT activity (in words) ([3]; 1 mg/ml, acellular): completely inhibits

Compound: CC(=O)N[C@@H](CSC(C)=O)C(=O)NCCSC(C)=O [I-176, N-(N,S-bisacetyl-L-cysteinyl)-S-acetylcysteamine]
- cytotoxicity (in words) (MDMs; FIG. 12, at the dose tested): cytotoxic
- toxicity (in words) (MDMs; MDMs, 150 μM, second series in DMSO): slightly toxic

Compound: CC(=O)N[C@@H](CSC(=O)C(C)C)C(=O)NCCSC(C)=O [I-177, N-(N-acetyl-S-isobutyryl-L-cysteinyl)-S-acetylcysteamine]
- antiviral activity (in words) (HIV-1/Ba-L): activities similar to that of I-152

Compound: Cc1cn([C@H]2C[C@H](N=[N+]=[N-])[C@@H](CO)O2)c(=O)[nH]c1=O [AZT, 3′-azido-3′-deoxythymidine, reference compound]
- inhibition of integration of the provirus (in words) (HIV provirus): perfect

Compound: NCCS [MEA, cysteamine, reference compound]
- inhibition of viral replication (in words) (HIV-1 LAI [1]): do not inhibit viral replication
- dose from which cytotoxic (PBLs): 500 µM
- EC50 (HIV-1/Ba-L): 0.3 mM
- decrease of the viability of MDMs (MDMs; MDMs, 500 μM): 65%
- cytotoxicity at antiviral doses (in words) (MDMs; MDMs): cytotoxic
- intracellular glutathione at high concentration (in words) ([2]; 500 μM): decrease
- effect on intracellular level of glutathione (in words) [2]: does not significantly alter the intracellular level of glutathione
- regeneration of GSH under conditions of stress (in words) (GSH): ineffective
- dose from which cytotoxic (PBMCs): 500 µM
- decrease of RT activity ([3]; exp. 1): 29±1%
- decrease of RT activity ([3]; exp. 2): 48±4%
- antiviral activity (in words) (HIV-1 LAI [4]): do not have or have a very slight antiviral activity
